The source of these data is patent US8846713B2, “Fused heterocyclic compounds as phosphodiesterases (PDEs) inhibitors” (Takeda Pharmaceutical Company Limited, priority 2010, dated 2014).

The target in this assay is T1, Human PDE10A enzyme (Homo sapiens, UniProt Q9Y233).
T1 construct: transfected with the full-length gene; His-tag; made in house; host or cells: Sf9 or COS-7 cells
The assay is described as follows: PDE enzyme inhibition, SPA (Scintillation Proximity Assay) with [3H]cGMP. Format: biochemical. As to conditions: [3H]cGMP substrate; for inhibition at 1 µM: compound 1 μM, read-out: Percent inhibition (1 μM); for inhibition at 10 µM: compound 10 μM, read-out: Percent inhibition (10 μM); for inhibition at 0.1 µM: compound 0.1 μM, read-out: Percent inhibition (0.1 μM). As for the experimental part:
Human PDE10A enzyme was generated from Sf9 or COS-7 cells transfected with the full-length gene. Cloned enzyme was extracted from homogenized cell pellets. The extracted enzyme from sf9 cells was partially purified using His-tag affinity column. The enzyme was stored at −70° C. until use. PDE activity was measured using a SPA (Scintillation Proximity Assay) (GE Healthcare). To evaluate the inhibitory activity, 10 μL of serial diluted compounds were incubated with 20 μL of PDE enzyme in assay buffer (50 mM HEPES-NaOH, 8.3 mM MgCl2, 1.7 mM EGTA, 0.1% BSA (pH 7.4)) for 30 min. at room temperature. Final concentration of DMSO in the assay was 1 percent as compounds were tested in duplicate in 96-well half-area plates (Corning). To start the reaction, 10 μL of substrate [^3H] cGMP (25 or 50 nM; enclosed in SPA kits from GE Healthcare or purchased from PerkinElmer, respectively) was added for a final assay volume of 40 μL. After 60 min incubation at room temperature, yttrium SPA beads containing Zinc sulphate were added (20 μL at 6 mg/mL) to terminate the PDE reaction. After being settled for 60 min, assay plates were counted in a scintillation counter (PerkinElmer) to allow calculation of inhibition rate. Inhibition rate was calculated on the basis of 0% control wells with DMSO and 100% control wells without enzyme.
(Scintillation proximity formats need no separation of bound from free tracer.)

Molecules are shown by their SMILES. Where a name gives a salt, the structure may show the parent alone.

T1 sequence (Q9Y233 267-1055): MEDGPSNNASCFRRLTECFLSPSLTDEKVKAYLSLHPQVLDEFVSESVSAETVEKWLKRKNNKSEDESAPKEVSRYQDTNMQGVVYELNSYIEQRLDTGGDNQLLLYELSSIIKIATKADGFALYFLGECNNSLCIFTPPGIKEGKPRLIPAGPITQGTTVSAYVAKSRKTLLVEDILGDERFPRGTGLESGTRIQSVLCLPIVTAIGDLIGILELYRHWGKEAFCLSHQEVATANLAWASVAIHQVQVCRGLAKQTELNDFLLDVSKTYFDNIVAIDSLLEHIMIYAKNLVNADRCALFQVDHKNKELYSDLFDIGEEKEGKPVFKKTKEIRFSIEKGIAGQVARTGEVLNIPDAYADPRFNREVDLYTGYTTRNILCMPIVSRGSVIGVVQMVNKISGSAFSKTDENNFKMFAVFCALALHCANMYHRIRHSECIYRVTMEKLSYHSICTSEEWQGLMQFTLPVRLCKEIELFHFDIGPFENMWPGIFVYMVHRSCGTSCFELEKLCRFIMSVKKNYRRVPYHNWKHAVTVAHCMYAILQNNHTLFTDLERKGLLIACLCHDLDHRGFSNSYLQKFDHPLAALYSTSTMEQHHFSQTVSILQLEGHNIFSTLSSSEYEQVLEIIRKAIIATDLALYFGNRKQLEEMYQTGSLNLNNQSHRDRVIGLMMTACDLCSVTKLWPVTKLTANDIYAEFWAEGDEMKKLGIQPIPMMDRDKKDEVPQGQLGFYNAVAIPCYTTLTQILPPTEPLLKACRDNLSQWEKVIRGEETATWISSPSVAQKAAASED

`CCn1c(=O)n(-c2ccc(Oc3nc4ccncc4[nH]3)cc2)c2ncccc21` [Example 115, 1-ethyl-3-[4-(3H-imidazo[4,5-c]pyridin-2-yloxy)phenyl]-1,3-dihydro-2H-imidazo[4,5-b]pyridin-2-one]: the inhibition – broadly, the change of the read-out against control, counted positive when it falls – at 1 µM came to 100% and the inhibition at 10 µM is 97%.
Take `CCn1c(=O)n(-c2ccc(N3CCn4c3nc3ccccc34)cc2)c2ncccc21` [Example 24, 3-[4-(2,3-dihydro-1H-imidazo[1,2-a]benzimidazol-1-yl)phenyl]-1-ethyl-1,3-dihydro-2H-imidazo[4,5-b]pyridin-2-one]: the inhibition at 0.1 µM worked out at 98%.
`CCn1c(=O)n(-c2ccc(Oc3nc4ccccc4n3CC(C)(C)O)cc2)c2ncccc21` [Example 40, 1-ethyl-3-(4-{[1-(2-hydroxy-2-methylpropyl)-1H-benzimidazol-2-yl]oxy}phenyl)-1,3-dihydro-2H-imidazo[4,5-b]pyridin-2-one]: the inhibition at 1 µM is 99% and the inhibition at 10 µM was determined as 101%.
Regarding `Cn1c(Oc2ccc(-n3c(=O)n(C4CC4)c4cccnc43)cc2)nc2cccnc21` [Example 99, 1-cyclopropyl-3-{4-[(3-methyl-3H-imidazo[4,5-b]pyridin-2-yl)oxy]phenyl}-1,3-dihydro-2H-imidazo[4,5-b]pyridin-2-one], the inhibition at 1 µM turned out to be 100% and the inhibition at 10 µM worked out at 105%.
For `Cn1c(Oc2ccc(-n3c(=O)n(C(F)F)c4cccnc43)cc2)nc2cccnc21` [Example 101] the same measures were 101% and 99%.
On the same counts, the results for `CCn1c(=O)n(-c2ccc(Oc3nc4cccnc4[nH]3)cc2)c2ncccc21` [Example 75, 1-ethyl-3-[4-(3H-imidazo[4,5-b]pyridin-2-yloxy)phenyl]-1,3-dihydro-2H-imidazo[4,5-b]pyridin-2-one] are 98% and 101%.
With `CCn1c(=O)n(-c2ccc(Oc3nc4ncccc4n3C)cc2)c2ncccc21` [Example 85, 1-ethyl-3-{4-[(1-methyl-1H-imidazo[4,5-b]pyridin-2-yl)oxy]phenyl}-1,3-dihydro-2H-imidazo[4,5-b]pyridin-2-one], the inhibition at 1 µM came out at 95% and the inhibition at 10 µM stood at 99%.
On the same counts, the results for `CC1(C)C(=O)N(c2ccc(Oc3cn4ccccc4n3)cc2)c2ncccc21` [Example 123, 1-[4-(imidazo[1,2-a]pyridin-2-yloxy)phenyl]-3,3-dimethyl-1,3-dihydro-2H-pyrrolo[2,3-b]pyridin-2-one] are 96% and 101%.
For `CCn1c(=O)n(-c2ccc(Oc3nc4cccnc4n3C)cc2)c2ncc(Cl)cc21` [Example 107, 6-chloro-1-ethyl-3-{4-[(3-methyl-3H-imidazo[4,5-b]pyridin-2-yl)oxy]phenyl}-1,3-dihydro-2H-imidazo[4,5-b]pyridin-2-one] the same measures were 103% and 102%.
On the same counts, the results for `CCn1c(=O)n(-c2ccc(-n3ncc4cccnc43)cc2)c2ncccc21` [Example 12, 1-Ethyl-3-[4-(1H-pyrazolo[3,4-b]pyridin-1-yl)phenyl]-1,3-dihydro-2H-imidazo[4,5-b]pyridin-2-one] are 93% and 99%.
`CCn1c(=O)n(-c2ccc(Oc3nc4cccnc4n3C)cc2)c2ncccc21` [Example 86, 1-ethyl-3-{4-[(3-methyl-3H-imidazo[4,5-b]pyridin-2-yl)oxy]phenyl}-1,3-dihydro-2H-imidazo[4,5-b]pyridin-2-one]: the inhibition at 1 µM was determined as 97% and the inhibition at 10 µM is 98%.
For `CC(C)n1c(=O)n(-c2ccc(Oc3nc4cccnc4n3C)cc2)c2ncc(Cl)cc21` [Example 126, 6-chloro-1-(1-methylethyl)-3-{4-[(3-methyl-3H-imidazo[4,5-b]pyridin-2-yl)oxy]phenyl}-1,3-dihydro-2H-imidazo[4,5-b]pyridin-2-one] the same measures were 98% and 100%.
For `CCn1c(=O)n(-c2ccc3c(c2)CCN3c2nc3ccccc3[nH]2)c2ncccc21` [Example 13, 3-[1-(1H-benzimidazol-2-yl)-2,3-dihydro-1H-indol-5-yl]-1-ethyl-1,3-dihydro-2H-imidazo[4,5-b]pyridin-2-one] the same measures were 100% and 101%.
Turning to `Cn1c(=O)n(-c2ccc(N3CCn4c3nc3ccccc34)cc2)c2ncccc21` [Example 3, 3-[4-(2,3-dihydro-1H-imidazo[1,2-a]benzimidazol-1-yl)phenyl]-1-methyl-1,3-dihydro-2H-imidazo[4,5-b]pyridin-2-one], the inhibition at 0.1 µM came out at 99%.
In the case of `CCn1c(=O)n(-c2ccc(Oc3nc4ccccc4n3CCO)cc2)c2ncccc21` [Example 39, 1-ethyl-3-(4-{[1-(2-hydroxyethyl)-1H-benzimidazol-2-yl]oxy}phenyl)-1,3-dihydro-2H-imidazo[4,5-b]pyridin-2-one], the inhibition at 1 µM amounted to 100% and the inhibition at 10 µM turned out to be 101%.
On the same counts, the results for `Cc1ccnc2c1n(C)c(=O)n2-c1ccc(Oc2nc3cccnc3n2C)cc1` [Example 135, 1,7-dimethyl-3-{4-[(3-methyl-3H-imidazo[4,5-b]pyridin-2-yl)oxy]phenyl}-1,3-dihydro-2H-imidazo[4,5-b]pyridin-2-one] are 94% and 99%.
On the same counts, the results for `Cn1c(Oc2ccc(-n3c(=O)n(C(F)F)c4cccnc43)cc2)nc2ccccc21` [Example 100, 1-(difluoromethyl)-3-{4-[(1-methyl-1H-benzimidazol-2-yl)oxy]phenyl}-1,3-dihydro-2H-imidazo[4,5-b]pyridin-2-one] are 99% and 100%.
On the same counts, the results for `CC(C)n1c(=O)n(-c2ccc(Oc3nc4cccnc4n3C)cc2)c2ncccc21` [Example 98, 1-(1-methylethyl)-3-{4-[(3-methyl-3H-imidazo[4,5-b]pyridin-2-yl)oxy]phenyl}-1,3-dihydro-2H-imidazo[4,5-b]pyridin-2-one] are 99% and 101%.
On to `CCn1c(=O)n(-c2ccc(Oc3nc4ccccc4n3C)cc2)c2ncc(C#N)cc21` [Example 109, 1-ethyl-3-{4-[(1-methyl-1H-benzimidazol-2-yl)oxy]phenyl}-2-oxo-2,3-dihydro-1H-imidazo[4,5-b]pyridine-6-carbonitrile], for which the inhibition at 1 µM stood at 99% and the inhibition at 10 µM was found to be 102%.
Consider `Cn1c(Oc2ccc(N3C(=O)C(C)(C)c4cccnc43)cc2)nc2ccccc21` [Example 102, 3,3-dimethyl-1-{4-[(1-methyl-1H-benzimidazol-2-yl)oxy]phenyl}-1,3-dihydro-2H-pyrrolo[2,3-b]pyridin-2-one], for which the inhibition at 1 µM is 99% and the inhibition at 10 µM was 106%.
On to `CCn1c(=O)n(-c2ccc(Oc3nc4ccccc4[nH]3)cc2)c2ncccc21` [Example 8, 3-[4-(1H-benzimidazol-2-yloxy)phenyl]-1-ethyl-1,3-dihydro-2H-imidazo[4,5-b]pyridin-2-one hydrochloride], for which the inhibition at 0.1 µM was 98%.
On to `O=c1[nH]c2cccnc2n1-c1ccc(Nc2nc3ccccc3o2)cc1` [Example 1, 3-[4-(1,3-benzoxazol-2-ylamino)phenyl]-1,3-dihydro-2H-imidazo[4,5-b]pyridin-2-one], for which the inhibition at 1 µM is 98% and the inhibition at 10 µM is 100%.
